Source: article PMC3774141 (Bioorganic & medicinal chemistry letters, 2013)

Columns and labels:
tubulin = test: inhibition of tubulin polymerization; type: biochemical
[1] = tested on: human cancer cell lines (HeLa, A549, H1299, MCF-7); test: antiproliferative activity, cancer cell lines tested; type: cell-based; conditions: read-out: IC50 against the cancer cell lines tested
[2] = tested on: human cervix carcinoma (HeLa); conditions: read-out: IC50 HeLa; values taken from the literature for comparison; cited from earlier work
[3] = tested on: human non-small-cell lung carcinoma (A549); conditions: read-out: IC50 A549; values taken from the literature for comparison; cited from earlier work
[4] = tested on: breast adenocarcinoma (MCF-7); conditions: read-out: IC50 MCF-7; values taken from the literature for comparison; cited from earlier work

IC50 [1] [nM]	Structure (SMILES)	inhibitors of tubulin polymerization (result in words) (tubulin)	IC50 [2] [nM]	IC50 [3] [nM]	IC50 [4] [nM]
> 45000	COc1ccc(-c2nnnn2-c2cc(OC)c(OC)c(OC)c2O)c(O)c1 [Compound 5a]	inactive			
> 45000	COc1ccc(-c2nnnn2-c2cc(OC)c(OC)c(OC)c2O)cc1 [Compound 5b]	inactive			
	COc1ccc(-c2nnnn2-c2cc(OC)c(OC)c(OC)c2)cc1 [Compound 5f]		2.6	222 ± 59	38.5 ± 5.8
